Assay results published in paper PMC8667043, “First-in-Class Inhibitors of the Ribosomal Oxygenase MINA53” (Journal of Medicinal Chemistry, 2021).

How the values were obtained:
Format in all cases: biochemical
KDM6B = target: T1, KDM6B (Homo sapiens, UniProt O15054); test: AlphaScreen KDM inhibition assay; settings: read-out: IC50 KDM6B (0.1 nM), enzyme 0.1 nM, means ± SD
T1 construct: (D1141- N-terminal S1761) N-terminal (M1- N-terminal R1641); made in house; host or cells: E. coli

KDM4A = target: T2, KDM4A (Homo sapiens, UniProt O75164); test: AlphaScreen KDM inhibition assay; settings: read-out: IC50 KDM4A (4 nM), enzyme 4 nM, means ± SD
T2 construct: (M1- N-terminal R1641) His6-tagged N-terminal His6-tagged L359); made in house; host or cells: E. coli
T2 sequence (O75164 1-359): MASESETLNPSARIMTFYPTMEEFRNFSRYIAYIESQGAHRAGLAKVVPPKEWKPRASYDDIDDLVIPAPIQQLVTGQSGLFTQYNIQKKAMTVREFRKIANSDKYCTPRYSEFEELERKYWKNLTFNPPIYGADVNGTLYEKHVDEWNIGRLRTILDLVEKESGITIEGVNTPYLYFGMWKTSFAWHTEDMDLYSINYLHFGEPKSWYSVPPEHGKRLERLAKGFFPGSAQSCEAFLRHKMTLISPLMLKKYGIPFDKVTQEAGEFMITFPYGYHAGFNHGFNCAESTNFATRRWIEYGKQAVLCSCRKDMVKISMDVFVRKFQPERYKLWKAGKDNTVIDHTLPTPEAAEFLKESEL

PCAF = target: T3, PCAF (Homo sapiens, UniProt Q92831); test: HotSpot KAT assay; settings: means ± SD of three experiments, read-out: Residual Enzymatic Activity (%) PCAF
T3 construct: purchased Reaction Biology Corporation, Malvern, PA, USA
Procedure: (§1) The ef fects of 1-13 on th e histone lysine acetyltr a nsferas e activity (KAT ) o f p300 and PCAF were
(§2) determined using the HotSpot KAT assay ( Reaction Biology Corporation, Malvern, PA, USA)
(§3) according to the supplier’s procedure. In brief, recombinant form s of catal ytic domains of PCAF
(§4) NaCl, 0.1 mM EDTA, 1 mM DTT, 1 mM PMSF, 1% (v/v) DMSO) fo r 1 h at 30 °C in the presenc e
(§5) or absence of various concentrations of the inhibitors. Histone H3 acetyl ation was assessed by
(§6) liquid scintillation counting using a Tri-Carb 2800TR Liquid Scintillation Analyzer
(§7) (PerkinElmer). Assays at fixed con centration doses were performed in triplicate and analyzed
(§8) using Excel and GraphPad Prism 6.0 software (GraphPad Software Inc., San Diego, CA).

p300 = target: T4, p300 (Homo sapiens, UniProt Q09472); test: HotSpot KAT assay; settings: 100 µM; means ± SD of three experiments; read-out: Residual Enzymatic Activity (%) p300
T4 construct: purchased Reaction Biology Corporation, Malvern, PA, USA
T4 sequence (Q09472 1284-1673): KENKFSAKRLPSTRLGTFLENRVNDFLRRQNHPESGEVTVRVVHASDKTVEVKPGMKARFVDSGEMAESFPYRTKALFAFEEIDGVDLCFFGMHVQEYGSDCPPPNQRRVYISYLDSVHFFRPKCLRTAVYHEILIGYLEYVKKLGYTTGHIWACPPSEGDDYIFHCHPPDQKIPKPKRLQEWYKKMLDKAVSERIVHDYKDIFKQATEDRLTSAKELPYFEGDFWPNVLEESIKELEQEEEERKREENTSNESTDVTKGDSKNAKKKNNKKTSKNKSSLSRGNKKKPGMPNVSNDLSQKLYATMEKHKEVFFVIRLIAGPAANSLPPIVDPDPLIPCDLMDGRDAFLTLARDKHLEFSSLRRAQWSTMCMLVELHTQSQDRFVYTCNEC
Procedure: as §1, §2, §3, §4, §5, §6, §7, §8

FIH = FIH (Homo sapiens, UniProt Q9NWT6); test: RapidFire FIH inhibition assay; settings: read-out: IC50 FIH (50 nM); MS based; enzyme 50 nM; means ± SD
Procedure: The reported procedure was used.[28] Tris(hydroxymethyl)aminomethane was from Fisher; all other reagents were from Sigma-Aldrich and of the highest available purity. FAS was prepared freshly every day as a 400 mM stock solution in 20 mM HCl, and this was then diluted to 1 mM in deionized water. […] The synthetic “consensus” ankyrin repeat derived peptide ([…]-CONH2) was synthesized by GL Biochem (Shanghai) Ltd and dissolved to 1 mM in deionized water. […] After 15 min, the reaction was quenched by the addition of 4 μL of 10% (v/v) aqueous formic acid and the reaction was transferred to a RapidFire RF360 high throughput sampling robot. The samples were aspirated under vacuum onto a C4 solid-phase extraction (SPE) cartridge. After an aqueous washing step (0.1% formic acid), to remove nonvolatile buffer components from the C4 SPE cartridge, peptides were eluted in an organic washing step (85% (v/v) aqueous acetonitrile, 0.1% formic acid) and injected into an Agilent 6530 Q-TOF mass spectrometer. Ion chromatogram data were extracted for the nonhydroxylated peptide substrate and the hydroxylated peptide product; peak area data for the extracted ion chromatograms were integrated using RapidFire Integrator software. Percentage conversion of the substrate to the product was calculated in Microsoft excel, and IC50 curves were generated using GraphPad Prism 5.0.

NO66 = target: T5, NO66 (Homo sapiens, UniProt Q9H6W3); test: NO66 MS (RapidFire) hydroxylation inhibition assay, Rpl8 peptide; settings: for IC50: IC50 NO66 (300 nM), MS based, enzyme 300 nM, means ± SD of at least three experiments
T5 construct: histidine tag (TEV-cleavable) (cleaved yes); made in house; host or cells: E. coli BL21(DE3)-R3-pRARE2
T5 sequence (Q9H6W3 183-641): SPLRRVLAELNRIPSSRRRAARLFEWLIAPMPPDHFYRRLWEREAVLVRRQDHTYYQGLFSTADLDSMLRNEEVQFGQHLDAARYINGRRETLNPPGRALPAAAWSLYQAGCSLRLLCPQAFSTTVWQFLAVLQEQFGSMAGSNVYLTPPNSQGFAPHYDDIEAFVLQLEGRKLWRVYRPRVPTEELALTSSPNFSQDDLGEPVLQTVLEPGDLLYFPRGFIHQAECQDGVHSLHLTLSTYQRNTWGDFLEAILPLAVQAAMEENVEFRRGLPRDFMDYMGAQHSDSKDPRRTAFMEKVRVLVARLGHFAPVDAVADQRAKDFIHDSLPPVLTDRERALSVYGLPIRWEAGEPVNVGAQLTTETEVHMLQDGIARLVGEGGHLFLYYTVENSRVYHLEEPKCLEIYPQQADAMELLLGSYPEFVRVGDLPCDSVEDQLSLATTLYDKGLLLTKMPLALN

T1 sequence (O15054 1141-1643 limits assumed): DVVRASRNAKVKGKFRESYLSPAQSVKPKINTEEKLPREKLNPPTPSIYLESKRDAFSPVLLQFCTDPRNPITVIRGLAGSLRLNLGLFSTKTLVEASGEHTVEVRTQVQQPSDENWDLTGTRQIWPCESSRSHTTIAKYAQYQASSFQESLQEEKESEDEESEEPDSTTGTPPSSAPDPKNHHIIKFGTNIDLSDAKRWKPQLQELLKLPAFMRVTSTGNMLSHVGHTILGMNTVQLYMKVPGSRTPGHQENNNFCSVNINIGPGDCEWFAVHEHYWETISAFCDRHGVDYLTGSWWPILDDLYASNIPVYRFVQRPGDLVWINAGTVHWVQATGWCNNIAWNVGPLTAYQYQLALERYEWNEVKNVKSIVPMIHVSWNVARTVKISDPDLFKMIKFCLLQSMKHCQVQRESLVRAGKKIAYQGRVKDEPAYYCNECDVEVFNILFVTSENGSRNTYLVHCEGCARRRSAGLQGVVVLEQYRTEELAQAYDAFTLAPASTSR
FIH, sequence (Q9NWT6 whole entry): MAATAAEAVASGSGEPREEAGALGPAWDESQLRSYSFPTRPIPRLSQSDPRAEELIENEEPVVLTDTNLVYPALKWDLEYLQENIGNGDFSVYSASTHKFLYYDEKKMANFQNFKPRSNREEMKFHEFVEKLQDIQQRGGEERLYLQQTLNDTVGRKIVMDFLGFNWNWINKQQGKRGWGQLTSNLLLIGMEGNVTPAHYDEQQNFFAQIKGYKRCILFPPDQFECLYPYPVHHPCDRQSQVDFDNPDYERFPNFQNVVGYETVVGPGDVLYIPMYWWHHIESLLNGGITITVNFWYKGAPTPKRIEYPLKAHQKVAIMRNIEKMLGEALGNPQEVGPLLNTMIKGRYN
T3 sequence (Q92831 492-658): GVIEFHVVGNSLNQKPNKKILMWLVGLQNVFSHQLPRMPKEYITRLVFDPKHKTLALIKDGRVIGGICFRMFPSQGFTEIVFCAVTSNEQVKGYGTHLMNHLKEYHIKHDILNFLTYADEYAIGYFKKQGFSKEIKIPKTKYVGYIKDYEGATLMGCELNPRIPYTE

Row | SMILES | IC50 (KDM6B) [µM] | IC50 (KDM4A) [µM] | remaining activity at 100 µM (PCAF) [%] | remaining activity at 100 µM (p300) [%] | IC50 (FIH) [µM] | IC50 (NO66) [µM] | increase in potency for NO66 (compare 8 with 9) (NO66; relative to 9) [fold]
1 | O=C(O)c1c[nH]c(=S)[nH]c1=O [compound 1] | > 100 | > 100 | 99.2 ± 2.7 | 98.7 ± 3 | > 100 | > 200 | –
2 | CSc1ncc(C(=O)O)c(=O)[nH]1 [compound 2, 2-(Methylthio)-3,4-dihydro-4-oxopyrimidine-5-carboxylic Acid] | 71.6 ± 3 | 17.6 ± 2 | 100 ± 2.5 | 97.8 ± 3 | 15.3 ± 0.9 | 40.2 ± 2 | –
3 | CCCCSc1ncc(C(=O)O)c(=O)[nH]1 [compound 3, 2-(Butylthio)-3,4-dihydro-4-oxopyrimidine-5-carboxylic Acid] | 43 ± 2 | 9.1 ± 0.6 | 101 ± 3.7 | 103 ± 2 | 15.9 ± 1.1 | 163 ± 6 | –
4 | CCCCCSc1ncc(C(=O)O)c(=O)[nH]1 [compound 4, 2-(Pentylthio)-3,4-dihydro-4-oxopyrimidine-5-carboxylic Acid] | 59.7 ± 4 | 16.5 ± 1.8 | 100 ± 2.9 | 97.7 ± 3 | 10.5 ± 0.8 | 81.2 ± 4 | –
5 | CCCCCCCCCSc1ncc(C(=O)O)c(=O)[nH]1 [compound 5, 2-(Nonylthio)-3,4-dihydro-4-oxopyrimidine-5-carboxylic Acid] | 67.1 ± 3 | 13.4 ± 1 | 104 ± 3.7 | 106 ± 3.5 | 4 ± 0.3 | > 200 | –
6 | O=C(O)c1cnc(SCC2CCCCC2)[nH]c1=O [compound 6, 2-((Cyclohexylmethyl)thio)-3,4-dihydro-4-oxopyrimidine-5-carboxylic Acid] | 38.1 ± 3 | 20.8 ± 2 | 99.2 ± 2.1 | 104 ± 4.1 | 7.8 ± 0.6 | 182 ± 8 | –
7 | O=C(O)c1cnc(SCc2ccccc2)[nH]c1=O [compound 7, 2-(Benzylthio)-3,4-dihydro-4-oxopyrimidine-5-carboxylic Acid] | 74.6 ± 2 | 24.6 ± 1.8 | 101 ± 2.9 | 107 ± 3.8 | 20.2 ± 1.6 | 48 ± 3 | –
8 | O=C(CSc1ncc(C(=O)O)c(=O)[nH]1)c1ccccc1 [compound 8, 2-((2-Oxo-2-phenylethyl)thio)-3,4-dihydro-4-oxopyrimidine-5-carboxylic Acid] | 46.4 ± 3 | 32.8 ± 2.1 | 103 ± 3.7 | 106 ± 3.5 | 19.4 ± 1.4 | 23.5 ± 2 | > 2
9 | O=C(O)c1cnc(SCCc2ccccc2)[nH]c1=O [compound 9, 2-(Phenethylthio)-3,4-dihydro-4-oxopyrimidine-5-carboxylic Acid] | 47.4 ± 4 | 19 ± 1.2 | 102 ± 2.1 | 107 ± 4.8 | 23.8 ± 1.4 | 71.7 ± 4 | –
10 | O=C(O)c1cnc(SCCCc2ccccc2)[nH]c1=O [compound 10, 2-((3-Phenylpropyl)thio)-3,4-dihydro-4-oxopyrimidine-5-carboxylic Acid] | 70 ± 4 | 74.2 ± 4.8 | 101 ± 2.7 | 97.9 ± 2 | 29.8 ± 2 | 36.9 ± 2 | –
11 | O=C(O)c1cnc(SCCCCc2ccccc2)[nH]c1=O [compound 11, 2-((4-Phenylbutyl)thio)-3,4-dihydro-4-oxopyrimidine-5-carboxylic Acid] | 45.8 ± 3 | 14.3 ± 1 | 100 ± 3.7 | 98.6 ± 2.2 | 19.2 ± 1.2 | 22.9 ± 2 | –
12 | CCOC(=O)/C=C\Sc1ncc(C(=O)O)c(=O)[nH]1 [compound 12, (Z)-2-((3-Ethoxy-3-oxoprop-1-en-1-yl)thio)-3,4-dihydro-4-oxopyrimidine-5-carboxylic Acid] | 28.6 ± 1.6 | 11.2 ± 0.9 | 103 ± 2.3 | 104 ± 4.1 | 30.1 ± 2 | 80.2 ± 5 | –
13 | O=C(O)/C=C\Sc1ncc(C(=O)O)c(=O)[nH]1 [compound 13, (Z)-2-((2-carboxyvinyl)thio)-3,4-dihydro-4-oxopyrimidine-5-carboxylic Acid] | 75.3 ± 7 | 64.1 ± 4 | 104 ± 4.1 | 107 ± 4.2 | 86.6 ± 4.2 | 100 ± 4 | –
